tested on: NL4-3 strain of HIV-1; experiment: HIV replication inhibition: CellTiter-Glo cyto-protection assay in MT4 cells infected with NL4-3 virus; format: cell-based; details: Human immunodeficiency virus 1, NL43, 120 h, concentration giving 50% cyto-protection, 5 days incubation, CellTiter-Glo viability readout
Description: The antiviral activity, particularly against HIV, of compounds according to the invention is evaluated by the protocol described below.
Preparation of Virus stock of the NL4-3 strain of HIV-1 (Adachi et al, J Virol, 1986, 59(2):284-91).
The virus was prepared as described in Lopez et al (Lopez et al, Proc Natl Acad Sci USA., 2006, 103(40):14947-52, by transfecting 2×10^6 293 T cells (CRL-1573, ATCC) with following modifications: 6 μg of NL4-3 proviral DNA molecular clone were mixed with Fugene 6 transfection reagent from Roche, and used according to manufacturer's instructions. Forty eight hours later, transfected cell supernatants were harvested, filtered through 0.45-μm-pore-size filters, quantified for HIV-1 p24 antigen by using a Innotest HIV antigen mAb assay (Ingen) according to manufacturer's instructions, and used in infection experiments.
Serial dilutions of compounds to be tested were prepared in complete RPMI medium from 10 mM DMSO stock solutions, and distributed in a volume of 20 μl in 96 well Falcon 353072 Microtest™ tissue culture plate, in order to get 0.5% DMSO final concentration in each well, after the addition of infected cells. Control wells contained also 0.5% DMSO final concentration but no compound.
MT4 cells (from the NIH AIDS Research and Reference Reagent Program) in RPMI complete medium were counted (10×10^6 cells per well in Falcon 353047 Multiwell™ 24 well) and infected for 2 hours at 37°, at a multiplicity of infection (moi) of 0.0001-0.00001. Cells were then centrifuged 3 min at 3000 rpm, and washed two times in 1 ml PBS to remove viruses that have not entered in cells. Infected cells were resuspended in complete RPMI at 1.25×10^6 cells/ml, and 80 μl of infected cells were distributed in each well containing compounds to be tested or control wells. The plates were then incubated at 37° for 5 days.
Assay used to measure the inhibition of HIV replication by the compounds (according to Gregg S. Jones et al., Antimicrobial Agents and Chemotherapy, 2009, 53 (3): 1194-1203).
After 5 days of incubation, 50 μl of CellTiter-Glo reagent (Promega Biosciences, Inc., Madison Wis., USA) were added to each well. Cell lysis was carried out at room temperature during 10 min, 150 μl of lysates were transferred in Packard Optiplate 96 well, and luminescence was read on a Fluoroskan (Thermo Scientific).

Question: For Cc1cccc(C(OC(C)(C)C)C(=O)O)c1-c1ccc2c(c1)CCCO2 (stereo not shown) [Example 11, 2-(tert-butoxy)-2-[2-(3,4-dihydro-2H-1-benzopyran-6-yl)-3-methylphenyl] acetic acid], which EC50 is on record?
Answer: 48 µM

Question: With CC(C)(C)OC(C(=O)O)c1ccc(-c2cccc(-c3cccnc3)c2)cc1-c1ccc2c(c1)CCCO2 (stereo not shown) [Example 30, methyl 2-(tert-butoxy)-2-[2-(3,4-dihydro-2H-1-benzopyran-6-yl)-4-[3-(pyridin-3-yl)phenyl]phenyl]acetic acid] as the compound, how does the EC50 read?
Answer: 4.2 µM

Question: For CC(C)(C)OC(C(=O)O)c1c(C(F)(F)F)ccc(F)c1-c1ccc2c(c1)CCCO2 (stereo not shown) [Example 34, 2-(tert-butoxy)-2-[2-(3,4-dihydro-2H-1-benzopyran-6-yl)-3-fluoro-6-(trifluoromethyl)phenyl]acetic acid], which EC50 is on record?
Answer: 14 µM

Question: For CC(C)(C)OC(C(=O)O)c1cccc(C(F)(F)F)c1-c1ccc2c(c1)CCCO2 (stereo not shown) [Example 21, 2-(tert-butoxy)-2-[2-(3,4-dihydro-2H-1-benzopyran-6-yl)-3-trifluoromethylphenyl]acetic acid], which EC50 is on record?
Answer: 9.7 µM

Question: Which EC50 does the source give for CC1(C)CC=C(c2cccc(C(F)(F)F)c2C(OC(C)(C)C)C(=O)O)CC1 (stereo not shown) [Example 36, 2-(tert-butoxy)-2-[2-(4,4-dimethylcyclohex-1-en-1-yl)-6-(trifluoromethyl)phenyl]acetic acid] here?
Answer: 4.5 µM

Question: Which EC50 does the source give for CC(C)(C)OC(C(=O)O)c1c(-c2ccc3c(c2)CCCO3)ccc2ncccc12 (stereo not shown) [Example 20, 2-(tert-butoxy)-2-[6-(3,4-dihydro-2H-1-benzopyran-6-yl)quinolin-5-yl]acetic acid] here?
Answer: 3.8 µM

Question: For CC(C)(C)OC(C(=O)O)c1c(C(F)(F)F)ccc(OCc2ccccc2)c1-c1ccc2c(c1)CCCO2 (stereo not shown) [Example 35, 2-[3-(benzyloxy)-2-(3,4-dihydro-2H-1-benzopyran-6-yl)-6-(trifluoromethyl)phenyl]-2-(tert-butoxy)acetic acid], which EC50 is on record?
Answer: 3.2 µM

Question: Cc1cccc(-c2ccc3c(c2)CCCO3)c1C(OC(C)(C)C)C(=O)O (stereo not shown) [Example 22, 2-(tert-butoxy)-2-[2-(3,4-dihydro-2H-1-benzopyran-6-yl)-6-methylphenyl]acetic acid] was tested. Which EC50 did it give?
Answer: 26 µM

Question: For Cc1ccc(C)c(C(OC(C)(C)C)C(=O)O)c1-c1ccc2c(c1)CCCO2 (stereo not shown) [Example 27, 2-(tert-butoxy)-2-[2-(3,4-dihydro-2H-1-benzopyran-6-yl)-3,6-dimethylphenyl]acetic acid], which EC50 is on record?
Answer: 1.6 µM

Question: How did the EC50 turn out when CC(C)(C)OC(C(=O)O)c1c(-c2ccc3c(c2)CCCO3)cccc1C(F)(F)F (stereo not shown) [Example 33, 2-(tert-butoxy)-2-[2-(3,4-dihydro-2H-1-benzopyran-6-yl)-6-(trifluoromethyl)phenyl]acetic acid] was run?
Answer: 25 µM
